Columns and labels:
Assay in all cases: FRT cell Ussing chamber chloride transport assay
Assay type in all cases: cell-based
human CFTR mutant S1251N = biological target: T1, human CFTR mutant S1251N (Homo sapiens, UniProt P13569, S1251N); conditions: FRT cells expressing S1251N CFTR
T1 construct: expressed in transfected cells; host or cells: Fisher rat thyroid (FRT) FlpIn cells, pcDNA5/FRT
Description: (§1) DNA cloning: Wild-type CFTR coding region was inserted into pcDNA5/FRT (Invitrogen, San Diego, Calif.) between EcoRV and ApaI.
(§2) Single CFTR gene mutations were introduced into the wild-type CFTR coding sequence by using QuickChange XL site-directed mutagenesis kit (Stratagene, Cambridge, UK). The CFTR coding region as well as its promoter sequence and 3′ untranslated sequence was fully sequenced to confirm the mutagenesis reaction.
(§3) The CFTR gene was stably expressed in Fisher rat thyroid (FRT) cells through FlpIn system. The FRT-FlpIn host cell line was generated by stably transfecting FRT cells with pFRT/lacZeo. The single integration of a FRT site was confirmed by Southern blot. After the mutant CFTR DNA was transfected into the FRT-FlpIn host cell line, the cells were incubate at 37° C. in Coon's modified Ham's F12 containing 10% FBS, 1% Pen/Strep, and 36 ml of Na− Bicarbonate for up to 8 passages under hygromycin selection (200 ug/ml).
(§4) All cells were grown on Costar® Snapwell™ cell culture inserts at maintained at 37° C. prior to recording. The cell culture inserts were mounted into an Ussing chamber (VCC MC8; Physiologic Instruments, Inc., San Diego, Calif.) to record ISC in the voltage-clamp mode (Vhold=0 mV). For FRT cells, the basolateral membrane was permeabilized with 360 μg/ml Nystatin and a basolateral to apical Cl− gradient was established. The basolateral bath solution contained (in mM); 135 NaCl, 1.2 CaCl2, 1.2 MgCl2, 2.4 K2HPO4, 0.6 KHPO4, 10 N-2-hydroxyethylpiperazine-N′-2-ethanesulfonic acid (HEPES), and 10 dextrose (titrated to pH 7.4 with NaOH). The apical NaCl was replaced by equimolar Na+ gluconate (titrated to pH 7.4 with NaOH). For HBE cells, the ISC was measured in the presence of a basolateral to apical Cl− gradient. The normal Cl− solution contained (in mM) 145 NaCl, 3.3 K2HPO4, 1.2 MgCl2, 1.2 CaCl2, 10 Glucose, 10 HEPES (pH adjusted to 7.35 with NaOH) and the low Cl− solution contained (in mM) 145 NaGluconate, 1.2 MgCl2, 1.2 CaCl2, 10 glucose, 10 HEPES (pH adjusted to 7.35 with NaOH). All recordings were digitally acquired using a Acquire and Analyze software (version 2; Physiologic Instruments, Inc. San Diego, Calif.).
(§5) The 10 μM forskolin stimulated response in FRT cell expressing different mutant CFTR forms or in HBE cells isolated from CF patients was normalized to the 10 μM forskolin-stimulated response in FRT cells expressing wild-type CFTR or in HBE isolated from non-CF individuals and expressed as % wild-type CFTR. In HBE, amiloride was added prior to forskolin application to block the epithelial Na+ channel.

human CFTR mutant G1349D = biological target: T2, human CFTR mutant G1349D (Homo sapiens, UniProt P13569, G1349D); conditions: FRT cells expressing G1349D CFTR
T2 construct: expressed in transfected cells; host or cells: Fisher rat thyroid (FRT) FlpIn cells, pcDNA5/FRT
T2 sequence (P13569 whole entry G1349D): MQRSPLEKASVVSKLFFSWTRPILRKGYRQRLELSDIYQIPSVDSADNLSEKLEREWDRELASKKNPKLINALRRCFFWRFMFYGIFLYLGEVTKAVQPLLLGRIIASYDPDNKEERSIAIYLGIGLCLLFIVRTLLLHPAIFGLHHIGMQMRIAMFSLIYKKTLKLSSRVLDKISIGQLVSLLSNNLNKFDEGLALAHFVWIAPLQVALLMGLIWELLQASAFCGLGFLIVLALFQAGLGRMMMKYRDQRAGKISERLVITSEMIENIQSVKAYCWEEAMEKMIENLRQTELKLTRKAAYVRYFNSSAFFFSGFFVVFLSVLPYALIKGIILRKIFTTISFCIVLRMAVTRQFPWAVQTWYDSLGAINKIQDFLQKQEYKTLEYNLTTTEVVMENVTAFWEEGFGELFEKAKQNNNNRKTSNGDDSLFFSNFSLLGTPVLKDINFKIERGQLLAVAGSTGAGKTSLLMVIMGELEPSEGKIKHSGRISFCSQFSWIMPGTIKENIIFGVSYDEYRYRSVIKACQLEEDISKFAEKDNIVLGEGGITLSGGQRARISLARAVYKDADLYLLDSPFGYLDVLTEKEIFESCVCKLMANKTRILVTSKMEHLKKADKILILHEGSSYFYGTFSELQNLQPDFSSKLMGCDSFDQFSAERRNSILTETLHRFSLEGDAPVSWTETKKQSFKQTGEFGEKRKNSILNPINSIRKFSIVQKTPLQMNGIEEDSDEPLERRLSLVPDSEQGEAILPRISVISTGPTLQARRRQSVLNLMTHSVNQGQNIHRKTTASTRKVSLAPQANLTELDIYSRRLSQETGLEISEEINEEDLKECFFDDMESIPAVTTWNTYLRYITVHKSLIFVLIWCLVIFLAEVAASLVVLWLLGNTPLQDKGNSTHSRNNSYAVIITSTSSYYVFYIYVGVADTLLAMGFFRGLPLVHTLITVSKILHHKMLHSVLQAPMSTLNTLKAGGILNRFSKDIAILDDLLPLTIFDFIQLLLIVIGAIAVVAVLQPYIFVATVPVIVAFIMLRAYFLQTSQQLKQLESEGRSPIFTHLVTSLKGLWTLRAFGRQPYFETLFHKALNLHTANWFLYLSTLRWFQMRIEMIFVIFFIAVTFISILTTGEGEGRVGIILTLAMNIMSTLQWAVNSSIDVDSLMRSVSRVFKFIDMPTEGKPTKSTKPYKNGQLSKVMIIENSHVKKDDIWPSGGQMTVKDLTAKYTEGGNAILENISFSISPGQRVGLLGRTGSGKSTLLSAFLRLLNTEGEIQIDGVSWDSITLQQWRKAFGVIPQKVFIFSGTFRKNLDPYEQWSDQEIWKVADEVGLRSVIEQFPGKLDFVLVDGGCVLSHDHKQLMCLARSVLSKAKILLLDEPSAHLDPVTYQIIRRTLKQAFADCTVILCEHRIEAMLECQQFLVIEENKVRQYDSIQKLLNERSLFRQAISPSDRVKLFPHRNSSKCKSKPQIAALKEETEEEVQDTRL
Description: as §1, §2, §3, §4, §5

human CFTR mutant F1074L = biological target: T3, human CFTR mutant F1074L (Homo sapiens, UniProt P13569, F1074L); conditions: FRT cells expressing F1074L CFTR
T3 construct: expressed in transfected cells; host or cells: Fisher rat thyroid (FRT) FlpIn cells, pcDNA5/FRT
T3 sequence (P13569 whole entry F1074L): as the sequence (P13569 whole entry G1349D) above, with F1074L, D1349G counted along it
Description: as §1, §2, §3, §4, §5

human CFTR mutant G178R = biological target: T4, human CFTR mutant G178R (Homo sapiens, UniProt P13569, G178R); conditions: FRT cells expressing G178R CFTR
T4 construct: expressed in transfected cells; host or cells: Fisher rat thyroid (FRT) FlpIn cells, pcDNA5/FRT
T4 sequence (P13569 whole entry G178R): as the sequence (P13569 whole entry G1349D) above, with G178R, D1349G counted along it
Description: as §1, §2, §3, §4, §5

human CFTR mutant S1235R = biological target: T5, human CFTR mutant S1235R (Homo sapiens, UniProt P13569, S1235R); conditions: FRT cells expressing S1235R CFTR
T5 construct: expressed in transfected cells; host or cells: Fisher rat thyroid (FRT) FlpIn cells, pcDNA5/FRT
T5 sequence (P13569 whole entry S1235R): as the sequence (P13569 whole entry G1349D) above, with S1235R, D1349G counted along it
Description: as §1, §2, §3, §4, §5

human CFTR mutant S549R = biological target: T6, human CFTR mutant S549R (Homo sapiens, UniProt P13569, S549R); conditions: FRT cells expressing S549R CFTR
T6 construct: expressed in transfected cells; host or cells: Fisher rat thyroid (FRT) FlpIn cells, pcDNA5/FRT
T6 sequence (P13569 whole entry S549R): as the sequence (P13569 whole entry G1349D) above, with S549R, D1349G counted along it
Description: as §1, §2, §3, §4, §5

human CFTR mutant G1244E = biological target: T7, human CFTR mutant G1244E (Homo sapiens, UniProt P13569, G1244E); conditions: FRT cells expressing G1244E CFTR
T7 construct: expressed in transfected cells; host or cells: Fisher rat thyroid (FRT) FlpIn cells, pcDNA5/FRT
T7 sequence (P13569 whole entry G1244E): as the sequence (P13569 whole entry G1349D) above, with G1244E, D1349G counted along it
Description: as §1, §2, §3, §4, §5

human CFTR mutant S1255P = biological target: T8, human CFTR mutant S1255P (Homo sapiens, UniProt P13569, S1255P); conditions: FRT cells expressing S1255P CFTR
T8 construct: expressed in transfected cells; host or cells: Fisher rat thyroid (FRT) FlpIn cells, pcDNA5/FRT
T8 sequence (P13569 whole entry S1255P): as the sequence (P13569 whole entry G1349D) above, with S1255P, D1349G counted along it
Description: as §1, §2, §3, §4, §5

human CFTR mutant D1270N = biological target: T9, human CFTR mutant D1270N (Homo sapiens, UniProt P13569, D1270N); conditions: FRT cells expressing D1270N CFTR
T9 construct: expressed in transfected cells; host or cells: Fisher rat thyroid (FRT) FlpIn cells, pcDNA5/FRT
T9 sequence (P13569 whole entry D1270N): as the sequence (P13569 whole entry G1349D) above, with D1270N, D1349G counted along it
Description: as §1, §2, §3, §4, §5

human CFTR mutant L206W = biological target: T10, human CFTR mutant L206W (Homo sapiens, UniProt P13569, L206W); conditions: FRT cells expressing L206W CFTR
T10 construct: expressed in transfected cells; host or cells: Fisher rat thyroid (FRT) FlpIn cells, pcDNA5/FRT
T10 sequence (P13569 whole entry L206W): as the sequence (P13569 whole entry G1349D) above, with L206W, D1349G counted along it
Description: as §1, §2, §3, §4, §5

human CFTR mutant R347H = biological target: T11, human CFTR mutant R347H (Homo sapiens, UniProt P13569, R347H); conditions: FRT cells expressing R347H CFTR
T11 construct: expressed in transfected cells; host or cells: Fisher rat thyroid (FRT) FlpIn cells, pcDNA5/FRT
T11 sequence (P13569 whole entry R347H): as the sequence (P13569 whole entry G1349D) above, with R347H, D1349G counted along it
Description: as §1, §2, §3, §4, §5

human CFTR mutant R117C = biological target: T12, human CFTR mutant R117C (Homo sapiens, UniProt P13569, R117C); conditions: FRT cells expressing R117C CFTR
T12 construct: expressed in transfected cells; host or cells: Fisher rat thyroid (FRT) FlpIn cells, pcDNA5/FRT
T12 sequence (P13569 whole entry R117C): as the sequence (P13569 whole entry G1349D) above, with R117C, D1349G counted along it
Description: as §1, §2, §3, §4, §5

human CFTR mutant G551S = biological target: T13, human CFTR mutant G551S (Homo sapiens, UniProt P13569, G551S); conditions: FRT cells expressing G551S CFTR
T13 construct: expressed in transfected cells; host or cells: Fisher rat thyroid (FRT) FlpIn cells, pcDNA5/FRT
T13 sequence (P13569 whole entry G551S): as the sequence (P13569 whole entry G1349D) above, with G551S, D1349G counted along it
Description: as §1, §2, §3, §4, §5

T1 sequence (P13569 whole entry S1251N): as the sequence (P13569 whole entry G1349D) above, with S1251N, D1349G counted along it

SMILES: CC(C)(C)c1cc(C(C)(C)C)c(NC(=O)c2c[nH]c3ccccc3c2=O)cc1O [Compound 1, N-[2,4-bis(1,1-dimethylethyl)-5-hydroxyphenyl]-1,4-dihydro-4-oxoquinoline-3-carboxamide]
- increase in chloride transport, relative to baseline chloride transport (human CFTR mutant S1251N): greater than 10 fold
- increase in chloride transport, relative to baseline chloride transport (human CFTR mutant G1349D): greater than 10 fold
- increase in chloride transport, relative to baseline chloride transport (human CFTR mutant F1074L): greater than or equal to 10%
- increase in chloride transport, relative to baseline chloride transport (human CFTR mutant G178R): greater than 10 fold
- increase in chloride transport, relative to baseline chloride transport (human CFTR mutant S1235R): greater than or equal to 10%
- increase in chloride transport, relative to baseline chloride transport (human CFTR mutant S549R): greater than 10 fold
- increase in chloride transport, relative to baseline chloride transport (human CFTR mutant G1244E): greater than 10 fold
- increase in chloride transport, relative to baseline chloride transport (human CFTR mutant S1255P): greater than 10 fold
- increase in chloride transport, relative to baseline chloride transport (human CFTR mutant D1270N): greater than or equal to 10%
- increase in chloride transport, relative to baseline chloride transport (human CFTR mutant L206W): greater than or equal to 10%
- increase in chloride transport, relative to baseline chloride transport (human CFTR mutant R347H): greater than or equal to 10%
- increase in chloride transport, relative to baseline chloride transport (human CFTR mutant R117C): greater than or equal to 10%
- increase in chloride transport, relative to baseline chloride transport (human CFTR mutant G551S): greater than 10 fold

Source: patent publication US20130331412A9, “Pharmaceutical Compositions and Administrations Thereof” (VERTEX PHARMACEUTICALS INCORPORATED, priority 2010, published 2013)
